Question: For `Cl.N[C@@H](CCC(=O)OCCCO[N+](=O)[O-])C(=O)O`, which melting point is on record?
Answer: Its melting point is 137 to 139 °C.

Question: For `Cl.N[C@@H](CCC(=O)OC(CO[N+](=O)[O-])CO[N+](=O)[O-])C(=O)O`, which melting point is on record?
Answer: The melting point was 139 °C (dec.).

Question: With `CC(C)(COC(=O)CC[C@H](N)C(=O)O)CO[N+](=O)[O-].Cl` as the compound, how does the melting point read?
Answer: The melting point was 132 to 135 °C.

Question: Which melting point does the source give for `Cl.N[C@@H](CCC(=O)OCc1ccc(CO[N+](=O)[O-])cc1)C(=O)O` here?
Answer: Its melting point is 135 to 138 °C.

Question: Which melting point does the source give for `Cl.N[C@@H](CCC(=O)OCC#CCO[N+](=O)[O-])C(=O)O` here?
Answer: The melting point was 107 to 110 °C.

Question: For `Cl.N[C@@H](CCC(=O)N1CCCC(CO[N+](=O)[O-])C1)C(=O)O` (some centres unmarked), which melting point is on record?
Answer: The melting point was 70 to 72 °C (dec.).

Question: With `Cl.N[C@@H](CCC(=O)OCCCC(CO[N+](=O)[O-])O[N+](=O)[O-])C(=O)O` (some centres unmarked) as the compound, how does the melting point read?
Answer: Its melting point is 90 to 94 °C.

Question: For `Cl.N[C@@H](CCC(=O)N1CCC(CCO[N+](=O)[O-])CC1)C(=O)O`, which melting point is on record?
Answer: The melting point was 137 to 140 °C.

Question: For `Cl.N[C@@H](CCC(=O)NCCCO[N+](=O)[O-])C(=O)O`, which melting point is on record?
Answer: The melting point was 57 to 60 °C.

Question: Which melting point does the source give for `CC(C)(CNC(=O)CC[C@H](N)C(=O)O)CO[N+](=O)[O-].Cl` here?
Answer: The melting point was 65 to 68 °C.

Question: With `Cl.N[C@@H](CCC(=O)O[C@H]1CO[C@H]2[C@@H]1OC[C@H]2O[N+](=O)[O-])C(=O)O` (stereo in doubt) as the compound, how does the melting point read?
Answer: The melting point was 160 to 162 °C.
